The text below walks through data of patent US11814327B2, “Fertilizers containing animal nutrient core packet” (Pursell Agri-Tech, LLC, priority 2010, dated 2023).

This experiment relates to spinach variety (Bloomsdale Long-Standing). In words: Zinc uptake in spinach plants from application of fertilizer containing animal nutrient core packet (8-kg pot test). It counts as in vivo. To be noted: Soil applied Zn nutrient core product. As for the experimental part:
In this example tests were performed to quantify the incorporation of zinc in a common spinach variety (Bloomsdale Long-Standing) employing compositions of the present invention. The tests quantified the increase in leaf zinc content due to application of compositions of the present invention containing zinc. The impact of the present compositions on spinach biomass increase was not the primary objective. In addition to applications of the present compositions to soil, for comparative purposes, foliar application of zinc solutions were applied to spinach leaves. Direct foliar applications provide an indication of potentially maximum amounts of zinc uptake into the leaves. 1. Soil • 8 kg Greenville loam (fine, kaolinitic, thermic Rhodie Kandiudults), pH=6.2, organic matter=1.4%, CEC=5.2 cmol kg^−1. The soil has been depleted of nutrients by previous cropping of tomatoes and cabbage. 2. Experimental Units • The spinach was grown in 8-kg pots. Each pot was transplanted with two spinach seedlings on Mar. 5, 2010 3. Blanket Fertilizer Rates—Basal • All fertilizer materials were laboratory grade reagents to avoid contamination and antagonistic interaction with Zn, Fe and/or I. • Nitrogen: 250 mg N kg^−1 or 2 g N por^−1. […] Crop Data Analysis • The fresh and dried weight of spinach leaves was determined and analyzed for N, P, K, Zn, Fe and I. [table]

Turning to `O=C([O-])CN(CCN(CC(=O)[O-])CC(=O)[O-])CC(=O)[O-].[Na+].[Na+].[Zn+2]` [Zinc EDTA], the “effectiveness as Zn source in the nutrient core in increasing Zn tissue content in spinach” value is on record as “more effective than ZnSO4”.
